According to patent US9133183B2, “Imidazolidinones and analogs exhibiting anti-cancer and anti-proliferative activities” (Deciphera Pharmaceuticals, LLC, priority 2013, dated 2015):
pIC50: −log10 of the molar value.

Key:
M-NFS-60 cells = assay: M-NFS-60 cell proliferation assay (resazurin); assay type: cell-based; conditions: 67 h incubation
Summary of the method: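 Cells kept in medium containing 20 ng/mL mouse recombinant M-CSF. Fluorescence was read at ex 540/em 600 nm, and IC50 was fitted from percent inhibition across a range of inhibitor concentrations.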

c-FMS = assay: cFOS mRNA production in a c-FMS mouse spleen pharmacodynamic model; assay type: in vivo; conditions: out to 8 h post 30 mg/kg dose, single oral dose
Experimental: Analysis of cFOS mRNA Production in a c-FMS Mouse Spleen Pharmacodynamic Model
To examine the in vivo modulation of FMS activity by compounds of formula I, spleen samples from female DBA/1 mice were collected and analyzed for M-CSF stimulated production of cFOS mRNA. Briefly, six to seven week old female Taconic DBA/1BO J Bom Tac mice were treated with a single oral dose (by gavage) of either vehicle or compound. Plasma and spleen samples were collected from four mice at each timepoint 2, 4, 6, 8, 12, 18, and 24 hours after dosing. Fifteen minutes prior to euthanasia, all mice were injected IV with 1 μg (100 μL fixed volume) of M-CSF. M-CSF, Recombinant Mouse Macrophage Colony Stimulating Factor (36.4 kDa homodimer, ≧98% purity) was obtained from Gibco. All procedures carried out in this experiment were conducted in compliance with all the laws, regulations and guidelines of the National Institutes of Health (NIH). cFOS mRNA levels in spleen extracts were determined using a quantitative reverse transcriptase PCR kit from Life Technologies. Plasma levels of FMS inhibitors were determined by mass spectrometer analysis. The degree of FMS inhibition was correlative to the amount of decrease observed in cFOS mRNA levels in the spleen samples of treated animals compared to vehicle.

[1] = target: unphosphorylated PDGFRβ kinase (uPDGFRβ, Seq. ID No. 3) (Homo sapiens (Human), UniProt P09619); assay: Unphosphorylated PDGFRβ kinase assay (coupled pyruvate kinase/lactate dehydrogenase); assay type: biochemical; conditions: enzymatic assay, ATP 500 μM
Sequence of unphosphorylated PDGFRβ kinase (uPDGFRβ, Seq. ID No. 3) (P09619 557-1106): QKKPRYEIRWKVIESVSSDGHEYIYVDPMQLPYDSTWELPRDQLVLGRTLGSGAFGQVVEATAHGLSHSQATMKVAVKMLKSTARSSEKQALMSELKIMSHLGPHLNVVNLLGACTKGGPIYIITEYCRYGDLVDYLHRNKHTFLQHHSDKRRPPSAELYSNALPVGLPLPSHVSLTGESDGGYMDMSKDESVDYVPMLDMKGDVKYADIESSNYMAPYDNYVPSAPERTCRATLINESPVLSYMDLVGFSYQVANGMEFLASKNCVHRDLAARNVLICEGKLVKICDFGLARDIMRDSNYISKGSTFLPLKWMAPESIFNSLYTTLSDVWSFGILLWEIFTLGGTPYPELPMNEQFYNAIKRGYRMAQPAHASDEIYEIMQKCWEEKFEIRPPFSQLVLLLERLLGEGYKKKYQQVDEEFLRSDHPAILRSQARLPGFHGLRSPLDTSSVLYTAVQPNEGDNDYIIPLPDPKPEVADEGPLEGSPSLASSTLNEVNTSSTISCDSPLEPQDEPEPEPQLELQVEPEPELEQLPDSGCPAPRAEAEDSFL
Summary of the method: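 Construct residues 557-1106, unphosphorylated, 15.7 nM, with poly E4Y 2.5 mg/mL and 500 μM ATP, Tris pH 7.5, 1% DMSO, 30 °C. ADP coupled to NADH oxidation via PK/LDH, A340 followed 4 h; rate from 1.5-2.5 h versus no-compound control, IC50 from percent-inhibition series.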

cMET kinase = cMET kinase (Homo sapiens (Human), UniProt P08581); assay: cMET kinase inhibition (Table 4); assay type: biochemical
Sequence of cMET kinase (P08581 25-1390): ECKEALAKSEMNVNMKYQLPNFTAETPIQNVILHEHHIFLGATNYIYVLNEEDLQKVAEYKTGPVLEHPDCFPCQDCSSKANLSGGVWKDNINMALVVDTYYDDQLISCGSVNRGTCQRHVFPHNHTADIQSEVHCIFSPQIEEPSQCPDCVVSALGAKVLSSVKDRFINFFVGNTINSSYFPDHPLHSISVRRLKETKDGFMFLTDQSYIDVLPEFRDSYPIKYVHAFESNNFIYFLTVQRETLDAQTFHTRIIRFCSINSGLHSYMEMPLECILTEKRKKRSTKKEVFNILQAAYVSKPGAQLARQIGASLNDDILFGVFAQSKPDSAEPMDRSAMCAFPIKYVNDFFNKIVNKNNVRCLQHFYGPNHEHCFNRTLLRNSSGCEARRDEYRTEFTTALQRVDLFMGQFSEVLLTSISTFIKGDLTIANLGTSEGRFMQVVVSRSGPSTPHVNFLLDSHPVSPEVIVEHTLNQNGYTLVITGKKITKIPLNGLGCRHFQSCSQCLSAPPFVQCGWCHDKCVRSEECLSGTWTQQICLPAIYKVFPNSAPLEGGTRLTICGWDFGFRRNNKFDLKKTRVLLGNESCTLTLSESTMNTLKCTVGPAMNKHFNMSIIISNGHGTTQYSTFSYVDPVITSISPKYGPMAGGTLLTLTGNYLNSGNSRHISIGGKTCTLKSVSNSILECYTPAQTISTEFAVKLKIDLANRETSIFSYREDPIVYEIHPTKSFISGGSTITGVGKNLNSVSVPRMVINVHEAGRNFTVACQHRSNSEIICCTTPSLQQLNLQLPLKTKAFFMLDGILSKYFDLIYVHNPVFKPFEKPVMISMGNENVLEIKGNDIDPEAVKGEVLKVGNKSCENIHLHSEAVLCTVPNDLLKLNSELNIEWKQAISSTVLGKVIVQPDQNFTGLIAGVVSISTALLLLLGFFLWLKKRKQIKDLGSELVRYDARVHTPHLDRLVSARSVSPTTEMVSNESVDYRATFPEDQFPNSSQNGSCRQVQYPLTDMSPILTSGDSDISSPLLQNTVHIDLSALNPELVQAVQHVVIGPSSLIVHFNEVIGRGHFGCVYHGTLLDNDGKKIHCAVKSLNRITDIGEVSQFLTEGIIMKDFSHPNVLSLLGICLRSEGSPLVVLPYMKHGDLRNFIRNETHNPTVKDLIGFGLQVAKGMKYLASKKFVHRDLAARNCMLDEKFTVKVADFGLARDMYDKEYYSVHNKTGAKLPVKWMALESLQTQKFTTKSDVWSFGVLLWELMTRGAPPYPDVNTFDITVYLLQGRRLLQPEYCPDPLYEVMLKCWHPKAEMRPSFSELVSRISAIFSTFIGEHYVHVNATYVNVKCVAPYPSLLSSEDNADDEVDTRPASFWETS

KDR kinase = KDR kinase (Homo sapiens (Human), UniProt P35968); assay: KDR kinase inhibition (Table 4); assay type: biochemical
Sequence of KDR kinase (P35968 20-1356): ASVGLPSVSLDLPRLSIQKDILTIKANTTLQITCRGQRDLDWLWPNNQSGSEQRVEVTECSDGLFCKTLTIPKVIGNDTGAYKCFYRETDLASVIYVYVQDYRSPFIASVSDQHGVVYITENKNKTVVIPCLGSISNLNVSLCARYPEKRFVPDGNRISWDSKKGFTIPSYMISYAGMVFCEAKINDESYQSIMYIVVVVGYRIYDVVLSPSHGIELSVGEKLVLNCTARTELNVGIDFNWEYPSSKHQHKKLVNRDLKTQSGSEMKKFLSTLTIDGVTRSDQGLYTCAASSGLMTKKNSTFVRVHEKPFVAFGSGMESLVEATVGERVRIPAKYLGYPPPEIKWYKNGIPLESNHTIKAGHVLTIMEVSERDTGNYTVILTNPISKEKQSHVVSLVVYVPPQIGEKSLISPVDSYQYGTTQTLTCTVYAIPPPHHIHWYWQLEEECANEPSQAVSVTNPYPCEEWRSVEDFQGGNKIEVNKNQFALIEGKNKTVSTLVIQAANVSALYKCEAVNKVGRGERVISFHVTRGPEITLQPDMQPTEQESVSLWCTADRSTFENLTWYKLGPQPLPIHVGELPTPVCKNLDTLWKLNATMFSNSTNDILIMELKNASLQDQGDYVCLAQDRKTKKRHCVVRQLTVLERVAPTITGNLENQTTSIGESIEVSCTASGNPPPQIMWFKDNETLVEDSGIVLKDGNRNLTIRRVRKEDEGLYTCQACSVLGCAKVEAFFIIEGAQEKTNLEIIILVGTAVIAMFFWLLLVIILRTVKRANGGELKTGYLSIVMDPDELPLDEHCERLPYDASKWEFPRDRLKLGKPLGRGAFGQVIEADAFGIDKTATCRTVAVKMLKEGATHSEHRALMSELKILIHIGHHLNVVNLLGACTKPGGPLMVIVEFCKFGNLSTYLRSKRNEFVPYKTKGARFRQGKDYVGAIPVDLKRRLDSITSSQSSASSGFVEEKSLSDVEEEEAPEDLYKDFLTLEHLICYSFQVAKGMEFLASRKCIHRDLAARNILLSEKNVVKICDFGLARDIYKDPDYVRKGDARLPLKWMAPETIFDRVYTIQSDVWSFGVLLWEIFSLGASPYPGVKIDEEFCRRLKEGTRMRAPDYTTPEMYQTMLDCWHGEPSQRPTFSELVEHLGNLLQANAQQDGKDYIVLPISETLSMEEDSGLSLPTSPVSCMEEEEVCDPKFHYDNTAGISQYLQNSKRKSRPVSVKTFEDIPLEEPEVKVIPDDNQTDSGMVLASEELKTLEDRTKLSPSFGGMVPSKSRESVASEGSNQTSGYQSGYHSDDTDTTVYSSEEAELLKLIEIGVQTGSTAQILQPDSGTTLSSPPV

## Cc1nc(NC(=O)N2CCN(C)C2=O)ccc1Oc1ccnc(-c2cnn(C)c2)c1 [Example 41, 3-methyl-N-(6-methyl-5-((2-(1-methyl-1H-pyrazol-4-yl)pyridin-4-yl)oxy)pyridin-2-yl)-2-oxoimidazolidine-1-carboxamide]
M-NFS-60 cells
  pIC50: 6.00 to 7.00
c-FMS
  inhibition of cFOS mRNA levels: ≥ 70%
[1]
  pIC50: < 6.00

## Cc1nc(NC(=O)N2CCN(C3CCCC3)C2=O)ccc1Oc1ccnc(-c2cnn(C)c2)c1 [Example 29, 3-cyclopentyl-N-(6-methyl-5-((2-(1-methyl-1H-pyrazol-4-yl)pyridin-4-yl)oxy)pyridin-2-yl)-2-oxoimidazolidine-1-carboxamide]
M-NFS-60 cells
  pIC50: > 8.00
cMET kinase
  pIC50: 6.05
[1]
  pIC50: < 6.00
KDR kinase
  pIC50: < 5.48

## COCCN1CCN(C(=O)Nc2ccc(Oc3ccnc(-c4cnn(C)c4)c3)c(C)n2)C1=O [Example 18, 3-(2-methoxyethyl)-N-(6-methyl-5-((2-(1-methyl-1H-pyrazol-4-yl)pyridin-4-yl)oxy)pyridin-2-yl)-2-oxoimidazolidine-1-carboxamide]
M-NFS-60 cells
  pIC50: 6.00 to 7.00
cMET kinase
  pIC50: < 5.30
c-FMS
  inhibition of cFOS mRNA levels: ≥ 70%
[1]
  pIC50: < 6.00
KDR kinase
  pIC50: < 5.48

## CCN1CCN(C(=O)Nc2ccc(Oc3ccnc(-c4ccnc(C)c4)c3)c(C)n2)C1=O [Example 118, 3-ethyl-N-(6-methyl-5-((2′-methyl-[2,4′-bipyridin]-4-yl)oxy)pyridin-2-yl)-2-oxoimidazolidine-1-carboxamide]
M-NFS-60 cells
  pIC50: 7.00 to 8.00
c-FMS
  inhibition of cFOS mRNA levels: ≥ 70%
[1]
  pIC50: < 6.00

## CCN1CCN(C(=O)Nc2ccc(Oc3ccnc(-c4cnn(C)c4)c3)c(C)n2)C1=O [Example 42, 3-ethyl-N-(6-methyl-5-((2-(1-methyl-1H-pyrazol-4-yl)pyridin-4-yl)oxy)pyridin-2-yl)-2-oxoimidazolidine-1-carboxamide]
M-NFS-60 cells
  pIC50: 7.00 to 8.00
cMET kinase
  pIC50: < 5.30
c-FMS
  inhibition of cFOS mRNA levels: ≥ 70%
[1]
  pIC50: < 6.00
KDR kinase
  pIC50: < 5.00

## Cn1cc(-c2cc(Oc3ccc(NC(=O)N4CCN(C5CCOCC5)C4=O)nc3)ccn2)cn1 [Example 1, N-(5-((2-(1-methyl-1H-pyrazol-4-yl)pyridin-4-yl)oxy)pyridin-2-yl)-2-oxo-3-(tetrahydro-2H-pyran-4-yl)imidazolidine-1-carboxamide]
M-NFS-60 cells
  pIC50: 7.00 to 8.00
cMET kinase
  pIC50: < 5.30
[1]
  pIC50: 6.00 to 7.00
KDR kinase
  pIC50: < 5.48

## CCn1cc(-c2cc(Oc3ccc(NC(=O)N4CCN(C5CCOCC5)C4=O)nc3)ccn2)cn1 [Example 4, N-(5-((2-(1-ethyl-1H-pyrazol-4-yl)pyridin-4-yl)oxy)pyridin-2-yl)-2-oxo-3-(tetrahydro-2H-pyran-4-yl)imidazolidine-1-carboxamide]
M-NFS-60 cells
  pIC50: 7.00 to 8.00
[1]
  pIC50: 6.00 to 7.00

## CCc1nc(NC(=O)N2CCN(C3CCOCC3)C2=O)ccc1Oc1ccnc(-c2cnn(C)c2)c1 [Example 49, N-(6-ethyl-5-((2-(1-methyl-1H-pyrazol-4-yl)pyridin-4-yl)oxy)pyridin-2-yl)-2-oxo-3-(tetrahydro-2H-pyran-4-yl)imidazolidine-1-carboxamide]
M-NFS-60 cells
  pIC50: 6.00 to 7.00
[1]
  pIC50: < 6.00

## Cc1nc(NC(=O)N2CCN(C3COC3)C2=O)ccc1Oc1ccnc(-c2cnn(C)c2)c1 [Example 20, N-(6-methyl-5-((2-(1-methyl-1H-pyrazol-4-yl)pyridin-4-yl)oxy)pyridin-2-yl)-3-(oxetan-3-yl)-2-oxoimidazolidine-1-carboxamide]
M-NFS-60 cells
  pIC50: 7.00 to 8.00
[1]
  pIC50: < 6.00
